Data from publication PMC3462775 (PLoS ONE, 2012).
Values after ≈ are worked out from the molar mass of the structure shown. Bridge positions count the residues as written; N and C are the ends. Square brackets hold non-standard residues; d marks the D form. Peptide text beside a SMILES is read from it. I, II: the chains in the order shown. βAla = NCCC(=O)O

Assays:
[1] = test system: P.aeruginosa ATCC 27853; assay: MIC, standard microdilution assay; type: cell-based, Pseudomonas aeruginosa; conditions: Reference strain, wild type; CLSI microdilution, cation-supplemented Mueller-Hinton broth, 5x10^4 CFU/well, 18–20 h at 37°C, triplicate
Experimental: (§1) MICs were determined using a standard microdilution assay as recommended by the Clinical and Laboratory Standards Institute. Assays were performed in triplicate using cation-supplemented Mueller-Hinton (MH) broth (Becton Dickinson, Franklin Lakes, NJ, USA) and a bacterial inoculum of 5x10^4 CFU/well, in a final volume of 100 µl. The tested concentrations ranged from 0.1 µM to 24 µM for both peptides. Results were recorded after 18–20 h of incubation at 37°C.

[2] = test system: S.aureus ATCC 29213; assay: MIC, standard microdilution assay; type: cell-based, Staphylococcus aureus; conditions: Reference strain, wild type; CLSI microdilution, cation-supplemented Mueller-Hinton broth, 5x10^4 CFU/well, 18–20 h at 37°C, triplicate
Experimental: as §1

[3] = test system: S.epidermidis ATCC 14990; assay: MIC, standard microdilution assay; type: cell-based, Staphylococcus epidermidis; conditions: Reference strain, wild type; CLSI microdilution, cation-supplemented Mueller-Hinton broth, 5x10^4 CFU/well, 18–20 h at 37°C, triplicate
Experimental: as §1

[4] = test system: S.epidermidis 6154; type: cell-based, Staphylococcus epidermidis
Experimental: as §1

[5] = test system: P. aeruginosa ATCC 27853 biofilm; type: cell-based, Pseudomonas aeruginosa; conditions: ATCC 27853, 20 h
Experimental: Biofilm formation was performed by adapting the procedure described in [39] using the Calgary Biofilm Device (Innovotech, Innovotech Inc. Edmonton, Canada). Briefly, 96-well plates containing the bacterial inoculum were sealed with lids bearing 96 pegs on which the biofilm could build up. The plates were placed in an orbital incubator at 35°C (for P. aeruginosa and E. coli) or 37°C (for S. aureus) for 20 h under agitation at 125 rpm. Once biofilms formed, the lids were removed from the plates and the pegs were rinsed twice with phosphate buffered saline (PBS) to remove planktonic cells. The peg-lid was then transferred to a 96-well challenge microtiter plate, each well containing 200 µl of a twofold serial dilution of each peptide in LB medium. The challenge plate was incubated at 37°C for 2 hours. Peptide activity on pre-formed biofilm was evaluated by two independent methods: (i) visual observation of bacterial growth and (ii) counting of living bacterial cells after peptide treatment. In the first case, the peg-lid was removed from the challenge plate, rinsed with PBS and used to cover a 96-well recovery microtiter plate, each well containing 200 µl LB medium. The recovery plate was sealed, incubated at 37°C for 4 hours and then observed for any visible growth of bacteria detached from the peptide-treated biofilm. […]

[6] = test system: S. aureus USA300; assay: In vivo anti-MRSA activity, lethal i.p. infection of mice; conditions: Balb-c mice (20 g), groups of 5, i.p. LD100 (1×10^6) S. aureus USA 300 in 7% mucin, single i.p. peptide 25 mg/kg 30 min later; for survival: after 7 days
Experimental: The smallest number of bacteria causing 100% lethal infection (LD100) after intra-peritoneal (i.p.) injection was 1×10^6 in the presence of 7% mucin. An LD100 killed mice within 20 hours. Mice were infected with the LD100 of bacteria and treated i.p. with the peptides 30 minutes later.
Figure 4 In vivo antibacterial activity of tetrabranched M33-L and M33-D peptides. Balb-c mice (20 g) were injected i.p. with a lethal amount of S. aureus USA300 cells. Dashed line (Ctr), injection with bacteria and no peptides; dotted line, injection with bacteria and a single injection of M33-L peptide (25 mg/kg) 30 min later; continuous line, injection with bacteria and a single injection of M33-D peptide (25 mg/kg) 30 min later.
Animal procedures were approved by the Ethical Committee of the Azienda Ospedaliera Universitaria Senese on November 18, 2010. Balb-c mice (20 g) were infected i.p. with lethal amounts of bacteria (see results) mixed in 500 µl PBS +7% mucin (mucin from porcine stomach, type II, Sigma-Aldrich). Bacteria were cultured overnight, centrifuged, mixed in sterile PBS, and measured by spectrophotometer. Possible further dilutions in PBS were sometimes necessary to obtain the right amount of bacteria. Groups consisted of 5 animals. Moribund animals were killed humanely to avoid unnecessary distress. Surviving mice were monitored for 7 days. Thirty minutes after bacterial administration, peptides were inoculated i.p. with 0.5 ml PBS solution containing the indicated amount of peptide (see Results). Control animals received only PBS. P values were calculated using GraphPad Prism software.

[7] = Calcein release from liposomes mimicking the membrane of S. aureus; conditions: CL/PG 4∶6 liposomes, 50 µM lipid, 10 min at 20°C, peptide 0,5 to 15 µM, fluorescence 490/517 nm, three independent experiments
Description: To investigate interaction of peptides M33-D and M33-L with the bacterial membrane, including possible perturbation, we used vesicles with two lipid compositions to mimic the membrane of S. aureus (CL/PG, 4∶6 mol/mol) and E. coli (PE/PG, 7∶3 mol/mol). […] The peptide-induced effect was dose-dependent in both vesicle lipid compositions. […] No significant differences in the effects induced by M33-D and M33-L were evident, although the D peptide seemed slightly more efficient towards CL/PG liposomes at doses above 8 µM. […] The greater perturbing effect of both forms of M33 on PE/PG vesicles, compared to vesicles containing cardiolipin, was evident.
Calcein-loaded liposomes of two different composition (PE/PG, 7∶3 mol/mol and CL/PG, 4∶6 mol/mol) were prepared as follows. […] Lipid concentration of vesicles was measured by the method of Stewart and the final concentration used for all measurements was 50 µM. Calcein fluorescence in the vesicles is self-quenched and leakage was measured by relief of quenching; the measurements were carried out at 517 nm, exciting at 490 nm, with a Perkin-Elmer LS 50B spectrofluorimeter. […] Leakage was calculated by the equation: [drawing 1] where F and Ft are fluorescence […] addition of detergent and F0 the fluorescence of intact vesicles.

Compound	MIC [1] [µM]	MIC [2] [µM]	MIC [3] [µM]	MIC [4] [µM]	Minimum biofilm eradication concentration (MBEC) [5] [µM]	survival [6] [%]	peptide concentration giving maximum calcein release [7]	mortality (in words) [6]
CC[C@@H](C)[C@@H](NC(=O)[C@@H](CCCCN)NC(=O)[C@H](N)CCCCN)C(=O)N[C@H](CCCNC(=N)N)C(=O)N[C@@H](C(=O)N[C@H](CCCNC(=N)N)C(=O)N[C@H](CC(C)C)C(=O)N[C@H](CO)C(=O)N[C@H](C)C(=O)NCCCC[C@H](NC(=O)[C@@H](C)NC(=O)[C@@H](CO)NC(=O)[C@@H](CC(C)C)NC(=O)[C@@H](CCCNC(=N)N)NC(=O)[C@H](NC(=O)[C@@H](CCCNC(=N)N)NC(=O)[C@H](NC(=O)[C@@H](CCCCN)NC(=O)[C@H](N)CCCCN)[C@H](C)CC)C(C)C)C(=O)NCCCC[C@H](NC(=O)[C@H](CCCCNC(=O)[C@@H](C)NC(=O)[C@@H](CO)NC(=O)[C@@H](CC(C)C)NC(=O)[C@@H](CCCNC(=N)N)NC(=O)[C@H](NC(=O)[C@@H](CCCNC(=N)N)NC(=O)[C@H](NC(=O)[C@@H](CCCCN)NC(=O)[C@H](N)CCCCN)[C@H](C)CC)C(C)C)NC(=O)[C@@H](C)NC(=O)[C@@H](CO)NC(=O)[C@@H](CC(C)C)NC(=O)[C@@H](CCCNC(=N)N)NC(=O)[C@H](NC(=O)[C@@H](CCCNC(=N)N)NC(=O)[C@H](NC(=O)[C@@H](CCCCN)NC(=O)[C@H](N)CCCCN)[C@H](C)CC)C(C)C)C(=O)NCCC(=O)O)C(C)C [M33-D] (I: H-[dK][dK][dI][dR][dV][dR][dL][dS][dA]KK[βAla]-OH / II: H-[dK][dK][dI][dR][dV][dR][dL][dS][dA]K / III: H-[dK][dK][dI][dR][dV][dR][dL][dS][dA] / IV: H-[dK][dK][dI][dR][dV][dR][dL][dS][dA]; amide I:10-IV:C, I:11-II:C, II:10-III:C; N-terminus assumed)	1.5 (≈ 7.02 µg/mL)	1.5 (≈ 7.02 µg/mL)	0.4 (≈ 1.87 µg/mL)	0.7 (≈ 3.28 µg/mL)	3	100	greater than 10 µM	–
CC[C@H](C)[C@H](NC(=O)[C@H](CCCCN)NC(=O)[C@@H](N)CCCCN)C(=O)N[C@@H](CCCNC(=N)N)C(=O)N[C@H](C(=O)N[C@@H](CCCNC(=N)N)C(=O)N[C@@H](CC(C)C)C(=O)N[C@@H](CO)C(=O)N[C@@H](C)C(=O)NCCCC[C@H](NC(=O)[C@H](C)NC(=O)[C@H](CO)NC(=O)[C@H](CC(C)C)NC(=O)[C@H](CCCNC(=N)N)NC(=O)[C@@H](NC(=O)[C@H](CCCNC(=N)N)NC(=O)[C@@H](NC(=O)[C@H](CCCCN)NC(=O)[C@@H](N)CCCCN)[C@@H](C)CC)C(C)C)C(=O)NCCCC[C@H](NC(=O)[C@H](CCCCNC(=O)[C@H](C)NC(=O)[C@H](CO)NC(=O)[C@H](CC(C)C)NC(=O)[C@H](CCCNC(=N)N)NC(=O)[C@@H](NC(=O)[C@H](CCCNC(=N)N)NC(=O)[C@@H](NC(=O)[C@H](CCCCN)NC(=O)[C@@H](N)CCCCN)[C@@H](C)CC)C(C)C)NC(=O)[C@H](C)NC(=O)[C@H](CO)NC(=O)[C@H](CC(C)C)NC(=O)[C@H](CCCNC(=N)N)NC(=O)[C@@H](NC(=O)[C@H](CCCNC(=N)N)NC(=O)[C@@H](NC(=O)[C@H](CCCCN)NC(=O)[C@@H](N)CCCCN)[C@@H](C)CC)C(C)C)C(=O)NCCC(=O)O)C(C)C [M33-L] (I: H-KKIRVRLSAKK[βAla]-OH / II: H-KKIRVRLSAK / III: H-KKIRVRLSA / IV: H-KKIRVRLSA; amide I:10-IV:C, I:11-II:C, II:10-III:C; N-terminus assumed)	1.5 (≈ 7.02 µg/mL)	6 (≈ 28.1 µg/mL)	1.5 (≈ 7.02 µg/mL)	3 (≈ 14 µg/mL)	1.5	0	greater than 10 µM	mortality overlapping that of controls
